According to ChEMBL document CHEMBL3526034 (Drug Metab Dispos, 2013):
Values belong to the molecule of their own block, whether it stands above or below them.

What was measured:
[1] = Drug level in human urine treated with parent drug [14C]DTG at 20 mg, po; assay type: ADME, tissue-based; conditions: in vivo
Cytochrome P450 3A4 = Cytochrome P450 3A4 (Homo sapiens, UniProt P08684); assay: Drug level in supersomes expressing human recombinant CYP3A4 treated with [14C]DTG at 5 uM after 120 mins by radio-HPLC analysis; assay type: ADME; conditions: recombinant enzyme, 2 h
Chain of Cytochrome P450 3A4 (P08684 whole entry): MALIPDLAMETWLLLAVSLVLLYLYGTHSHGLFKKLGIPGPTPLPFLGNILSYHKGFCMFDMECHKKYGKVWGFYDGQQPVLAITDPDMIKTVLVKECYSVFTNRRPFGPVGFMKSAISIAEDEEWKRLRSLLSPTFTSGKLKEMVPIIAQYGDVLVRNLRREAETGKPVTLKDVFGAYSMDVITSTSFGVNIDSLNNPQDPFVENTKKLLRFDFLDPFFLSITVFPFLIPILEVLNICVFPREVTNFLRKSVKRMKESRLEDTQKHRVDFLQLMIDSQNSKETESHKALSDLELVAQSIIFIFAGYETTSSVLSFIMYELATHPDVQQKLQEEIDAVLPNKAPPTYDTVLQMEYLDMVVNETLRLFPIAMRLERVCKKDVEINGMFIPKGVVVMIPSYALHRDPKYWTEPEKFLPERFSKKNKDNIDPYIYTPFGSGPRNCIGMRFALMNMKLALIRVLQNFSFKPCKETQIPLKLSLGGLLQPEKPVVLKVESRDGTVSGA

[2] = target: T1, UDP-glucuronosyltransferase 1A1 (Homo sapiens, UniProt P22309); assay: Drug level assessed as UDPGA-fortified human recombinant UGT1A1-mediated compound formation treated with [14C]DTG at 16 uM after 120 mins by radio-HPLC analysis; assay type: ADME; conditions: recombinant enzyme, 2 h
T1 sequence (P22309 whole entry): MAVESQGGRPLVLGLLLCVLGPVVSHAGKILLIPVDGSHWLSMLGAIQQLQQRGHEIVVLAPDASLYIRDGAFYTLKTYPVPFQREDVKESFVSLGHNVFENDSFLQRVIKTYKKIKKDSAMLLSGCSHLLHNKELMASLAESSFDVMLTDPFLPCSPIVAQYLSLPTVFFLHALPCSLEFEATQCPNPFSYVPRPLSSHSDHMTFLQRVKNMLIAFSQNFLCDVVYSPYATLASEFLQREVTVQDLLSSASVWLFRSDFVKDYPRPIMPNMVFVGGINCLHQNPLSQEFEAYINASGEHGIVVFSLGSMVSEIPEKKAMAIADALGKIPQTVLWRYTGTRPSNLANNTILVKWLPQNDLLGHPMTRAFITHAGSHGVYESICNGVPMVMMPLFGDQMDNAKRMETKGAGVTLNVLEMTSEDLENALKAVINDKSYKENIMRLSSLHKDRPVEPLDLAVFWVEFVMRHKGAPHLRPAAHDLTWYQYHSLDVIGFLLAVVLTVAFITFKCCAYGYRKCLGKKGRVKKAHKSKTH

[3] = target: UDP-glucuronosyltransferase 1A3 (Homo sapiens, UniProt P35503); assay: Drug level assessed as UDPGA-fortified human recombinant UGT1A3-mediated compound formation treated with [14C]DTG at 16 uM after 120 mins by radio-HPLC analysis; assay type: ADME; conditions: recombinant enzyme, 2 h
Chain of UDP-glucuronosyltransferase 1A3 (P35503 whole entry): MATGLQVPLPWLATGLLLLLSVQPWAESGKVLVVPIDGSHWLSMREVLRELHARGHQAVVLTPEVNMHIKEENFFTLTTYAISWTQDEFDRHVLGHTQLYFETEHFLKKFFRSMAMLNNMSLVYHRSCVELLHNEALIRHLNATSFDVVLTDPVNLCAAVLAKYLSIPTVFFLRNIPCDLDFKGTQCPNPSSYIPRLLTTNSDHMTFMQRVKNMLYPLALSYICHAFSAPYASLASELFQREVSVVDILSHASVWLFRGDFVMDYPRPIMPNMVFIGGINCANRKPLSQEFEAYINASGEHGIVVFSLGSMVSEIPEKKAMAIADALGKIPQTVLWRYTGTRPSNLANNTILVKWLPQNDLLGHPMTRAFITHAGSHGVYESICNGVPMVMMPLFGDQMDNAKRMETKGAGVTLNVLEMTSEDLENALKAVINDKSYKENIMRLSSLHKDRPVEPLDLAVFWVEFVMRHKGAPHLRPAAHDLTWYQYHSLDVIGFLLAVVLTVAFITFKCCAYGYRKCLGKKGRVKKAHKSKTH

Hepatocyte = assay: Drug level in human hepatocytes treated with [14C]DTG at 50 uM after 4 to 20 hrs by radio-HPLC analysis; assay type: ADME, cell-based
Liver microsome [4] = assay: Drug level in UDPGA-fortified human liver microsomes treated with [14C]DTG at 16 uM treated for 4 hrs by radio-HPLC analysis; assay type: ADME
[5] = target: UDP-glucuronosyltransferase 1A9 (Homo sapiens, UniProt O60656); assay: Drug level assessed as UDPGA-fortified human recombinant UGT1A9-mediated compound formation treated with [14C]DTG at 16 uM after 120 mins by radio-HPLC analysis; assay type: ADME; conditions: recombinant enzyme, 2 h
Chain of UDP-glucuronosyltransferase 1A9 (O60656 whole entry): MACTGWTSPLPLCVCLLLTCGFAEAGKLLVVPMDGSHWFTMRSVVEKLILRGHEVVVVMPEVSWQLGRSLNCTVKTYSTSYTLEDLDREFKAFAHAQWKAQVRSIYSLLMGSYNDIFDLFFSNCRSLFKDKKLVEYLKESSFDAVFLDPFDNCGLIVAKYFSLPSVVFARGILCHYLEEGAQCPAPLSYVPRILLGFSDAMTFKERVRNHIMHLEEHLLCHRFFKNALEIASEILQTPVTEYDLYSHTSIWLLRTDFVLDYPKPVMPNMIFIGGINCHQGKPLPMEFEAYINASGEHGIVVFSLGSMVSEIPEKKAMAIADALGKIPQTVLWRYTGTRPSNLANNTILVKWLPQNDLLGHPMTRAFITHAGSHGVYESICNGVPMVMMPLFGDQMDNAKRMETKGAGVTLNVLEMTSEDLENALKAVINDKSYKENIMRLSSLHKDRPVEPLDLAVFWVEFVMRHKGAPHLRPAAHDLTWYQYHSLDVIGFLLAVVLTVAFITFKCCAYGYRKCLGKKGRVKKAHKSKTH

Liver microsome [6] = assay: Drug level in human liver microsomes treated with [14C]DTG at 5 uM after 120 mins by radio-HPLC analysis; assay type: ADME; conditions: 2 h
[7] = substrate: C[C@@H]1CCO[C@H]2Cn3cc(C(=O)NCc4ccc(F)cc4F)c(=O)c(O)c3C(=O)N12; assay: Drug metabolism in UDPGA-fortified human liver microsomes assessed as UGT1A1-mediated DTG glucuronide M2 ((2S,3S,4S,5R,6S)-6-((4R,12aS)-9-(2,4-difluorobenzylcarbamoyl)-4-methyl-6,8-dioxo-3,4,6,8,12,12a-hexahydro-2H-[1,3]oxazino[3,2-d]pyrido[1,2-a]pyrazin-7-yloxy)-3,4,5-trihydroxytetrahydro-2H-pyran-2-carboxylic acid) formation after 120 mins by radio-HPLC analysis; assay type: ADME
[8] = substrate: C[C@@H]1CCO[C@H]2Cn3cc(C(=O)NCc4ccc(F)cc4F)c(=O)c(O)c3C(=O)N12; assay: Drug metabolism assessed as human recombinant UGT1A1-mediated DTG glucuronide M2 ((2S,3S,4S,5R,6S)-6-((4R,12aS)-9-(2,4-difluorobenzylcarbamoyl)-4-methyl-6,8-dioxo-3,4,6,8,12,12a-hexahydro-2H-[1,3]oxazino[3,2-d]pyrido[1,2-a]pyrazin-7-yloxy)-3,4,5-trihydroxytetrahydro-2H-pyran-2-carboxylic acid) formation after 120 mins by radio-HPLC analysis; assay type: ADME

Drug excretion [1]: 3.6%
Drug metabolism (Cytochrome P450 3A4): metabolite_detected
Molecule: C[C@@H]1CCO[C@H]2Cn3cc(C(N)=O)c(=O)c(O)c3C(=O)N12

Drug excretion [1]: 3%
Drug metabolism (Liver microsome [6]): metabolite_detected
Molecule: C[C@@H]1CCO[C@H]2Cn3cc(C(=O)NC(O)c4ccc(F)cc4F)c(=O)c(O)c3C(=O)N12 (some centres not stated)

Further lines, the molecule ahead of its results:

Molecule: C[C@@H]1CCO[C@H]2Cn3cc(C(=O)NCc4ccc(F)cc4F)c(=O)c(O[C@@H]4O[C@H](C(=O)O)[C@@H](O)[C@H](O)[C@H]4O)c3C(=O)N12
Drug excretion [1]: 18.9%
Drug metabolism [2]: metabolite_detected
Drug metabolism [3]: metabolite_detected
Drug metabolism (Hepatocyte): metabolite_detected
Drug metabolism (Liver microsome [4]): metabolite_detected
Drug metabolism [5]: metabolite_detected

B1: UDP-glucuronosyltransferase 1A1 (Homo sapiens) (protein)
chain: T1 sequence (P22309 whole entry)
Km [7]: 149 µM
Km [8]: 21 µM
